From EP0808325B1, “[…] […] SERIES FOR […] GABA RECEPTOR” (priority 1994, dated 1996) come the findings set out here.

One test has as its target GR complex. Description: modulation of [35S]TBPS binding in rat cerebral cortex P2 homogenate. Conditions: for IC50: concentration of compounds to inhibit 50% of control [35S]TBPS binding, 2 nM [35S]TBPS, 25°C, 90 minutes, no unit printed; for IMAX: maximum inhibition of [35S]TBPS binding, I* = Inactive. More on the design: species or system Sprague-Dawley rats; IMAX: unit not given here. The method, then: We performed several experiments to determine the nature of the modulation of [^35S]TBPS as affected by the compounds of the invention.
These procedures were performed as follows:
Brains from male Sprague-Dawley rats were removed immediately following sacrifice and the cerebral cortices dissected over ice. […] Briefly, the cortices were gently homogenized in 0.32 M sucrose followed by centrifugation at 1000 x g for 10 minutes. The supernatant was collected and centrifuged at 9000 x g for 20 minutes. The resultant P2 pellet was suspended as a 10% (original wet weight/volume) suspension in 50 mM Na/K phosphate buffer (pH 7.4) 200 mM NaCI to form the homogenate.
One hundred microliter […] aliquots of the P2 homogenate (0.5 milligrams (mg) protein) were incubated with 2 nanomolar (nM) [^35S]TBPS (70-110 curies/millimole;, New England Nuclear, Boston, MA) in the presence or absence of the naturally occurring steroids or their synthetic derivatives to be tested. The tested compounds were dissolved in dimethylsulfoxide (Baker Chem. Co., Phillipsbury, NJ) and added to the incubation mixture in 5 µL aliquots. The incubation mixture was brought to a final volume of 1 mL with buffer. Nonspecific binding was defined as binding in the presence of […]. The effect and specificity of GABA (Sigma Chem. Co., St. Louis, MO) was evaluated by performing all assays in the presence of GABA plus (+)bicuculline (Sigma Chem. Co.). Incubations maintained at 25°C for 90 minutes (steady state conditions) were terminated by rapid filtration through glass fiber filters (No. 32, Schleicher and Schuell, Keene, NH). Filter-bound radioactivity was quantitated by liquid scintillation spectrophotometry.
Various compounds were screened to determine their potential as modulators of [^35S]TBPS binding in vitro. These assays were performed in accordance with the above discussed procedures. […] It is an indication of a compound's in vitro potency. Maximum inhibition is an indication of a compound's in vitro efficacy.

The test system of test [1] is metrazol induced convulsions. As to the kind of experiment: animal or person. Type of test: in vivo, mice. Conditions: IP, 10 mg/kg. The method, then:
Experiments were also performed to determine the physiological relevance of neuroactive steroid and GABA receptor interactions by assessing the ability of the compounds of and used in the invention to prevent metrazol induced convulsions in mice. […] The time to onset of myoclonus (presence of forelimb clonic activity) induced by metrazol was determined by observing each mouse for a period of 30 minutes. […]
The anticonvulsant tests are similar to that described above. […] The number of animals with tonic and/or clonic convulsions was recorded. In the maximal electroshock test, 50 mA of current at 60 Hz was delivered through corneal electrodes for 200 msec to induce tonic seizure. The ability of compounds to abolish the tonic component was defined as the endpoint. General CNS depression potential was determined by a rotorod test 10 minutes after the injection of compounds where the number of mice staying on a rotating (6 rpm) rod for 1 minute in one of the three trials was determined. […]

Another test concerns mice. Description: elevated plus-maze. Format: in vivo, N.I.H. Swiss-Webster mice. Particulars: IP. From the text: The theoretical basis for the elevated plus-maze test is similar to that of the light/dark transition test. As described by Pellow et al., J. Neurosci. Meth 14:149-167 (1985), the elevated plus-maze apparatus is designed to utilize the mice's natural aversion to open spaces. The apparatus consists of two open-arms and two enclosed-arms. The elevated plus-maze test allows for two measures of anxiety, the number of entries into the open-arms and the time spent on the open-arms, both expressed as a percentage of the total number of entries and time spent in/on both the open-arms and enclosed-arms.
Male N.I.H. Swiss-Webster mice (Harlan, Indianapolis, IN) weighing 15-20 g were housed four per cage in polyethylene cages with sawdust bedding. The colony room was environmentally controlled (22°C) with a 12 hr light/dark cycle (0600-1800 hr). Food and water were available ad libitum, except during testing. The experiments were run from 0700-1500 hr and groups were counterbalanced for time of day effects. Mice were only administered drug or vehicle once.
The method used was previously described (Lister, Psychopharmacol. 92:180-185 (1987)). The apparatus included two open arms perpendicular to two enclosed arms elevated 50 cm from the floor. Each arm was 50 cm long and the walls of the enclosed arms were 40 cm tall. The maze was made completely of black plexiglass. Incandescent 200 W light bulbs were above each of the open arms to produce a strong contrast between the open arms and the enclosed arms.
Ten minutes after an injection, the N.I.H. Swiss-Webster mice were placed in the center of the plus-maze facing an open arm. During the 5 min test period, the number of entries onto the open arms and the enclosed arms, and the time spent in the open arms and enclosed arms were measured. All four paws had to be within an arm for the dependent variable to be measured. Therefore, the time spent in the center of the maze is not counted, so the total time spent in the open arms and the enclosed arms may not equal 5 min. […]

A further test relates to rats. As to the kind of experiment: Geller-Seifter conflict test. Type of test: in vivo, Sprague-Dawley rats. Particulars: sc, 50% hpbcd. The source says:
This animal model of human anxiety utilizes a conditioned state of conflict in rats to ascertain the anxiolytic properties of drugs. Rats are conditioned to bar press for positive reinforcement under two schedules of behavior (Geller and Seifter, Psychopharmacologia 1:482-492 (1960)). The first includes bar pressing under a […] schedule without punishment. The second component is a fixed ratio schedule with each bar press resulting in a positive reinforcement and a punishment. The punished component produces a state of conflict within the animal. […] An anxiolytic response would increase the punished responding without affecting the unpunished responding.
Male albino Sprague-Dawley rats (Charles River Labs, Wilmington, MA) weighing 250-300 g were used for conflict experiments and were kept on a restricted diet of Purina Lab Chow food pellets with water available at all times to maintain body weight at 85% of their free-feeding young adult levels. Rats were housed individually under a 12-hour light-dark cycle with lights on from 0700-1900.
The anti-anxiety (punishment-lessening) and response depressant effects of […] and […] were measured in rats by the conflict test of Geller and Seifter (1960). In this 63-min test, hungry rats perform a lever-press response to obtain a sweetened milk reward. The reinforcement schedule consists of punishment and nonpunishment components, alternating approximately every 15 min. Rats were trained in test chambers (Coulbourn instruments) with a lever mounted in one wall, a small dipper that delivered the 0.1-mL milk reward (1 part Eagle condensed : milk 2 parts water), and a metal grid floor through which the foot-shock punishment was administered. A DEC PDP 11/73 minicomputer running SKED (State Systems) was used for programming and recording.
Rates initially learned to respond on a continuous reinforcement schedule and progressed rapidly to 30-sec, 1-min, and 2-min variable interval (VI) schedules. On the continuous reinforcement schedule, rats received milk reward following every lever press; on the VI schedules, milk rewards were available at infrequent and variable intervals, eventually at an average of once every 2 min. Four 3-min "conflict" periods were then introduced on the unpunished VI baseline; the first started after 3 min of VI performance and the others were alternated between 12-min periods of VI responding. During conflict periods, which were signalled by the presentation of a light and a tone, the continuous reinforcement schedule was again in force and each lever press delivered both a milk reward and a brief ([…]) foot-shock punishment. Shock intensity was 0.2 mA initially, and.was increased daily in increments of 0.02 mA in order to gradually suppress lever pressing to 5 responses or less per conflict period. This training took 4-6 weeks, after which stable low rates of response were observed during conflict periods and stable high rates in the nonpunishment periods. Drug-induced increases in the rate of punished responses were taken as an index of antianxiety activity, while decreases in the rate of unpunished responses were taken as an index of response depression or sedation.

Where [2] appears, read: 50% hpbcd, 10 minutes prior to metrazol (85 mg/kg).

`C[C@]12CC[C@](O)(C(F)(F)F)C[C@H]1CC[C@@H]1[C@@H]2CC[C@]2(C)[C@@H](C(=O)CO)CC[C@@H]12` [3α,21 Dihydroxy-3β-trifluoromethyl-5β-pregnan-20-one]: on GR complex, the half-maximal inhibitory concentration (IC50) worked out at 0.354 µM and the IMAX is listed as 102. Further, the “% Protected” value in test [1] (setting [2]) was found to be 50%. For the same compound, in the test with mice (50% hpbcd, 10 mg/kg), the “% Control” value stood at 237%. For the same compound, in the test on rats (16 mg/kg), the “Geller/Seifter (% of control)” value is 982.4 % of control.
On GR complex, `C[C@]12CC[C@](O)(CF)C[C@@H]1CC[C@@H]1[C@@H]2CC[C@]2(C)[C@@H](C(=O)CO)CC[C@@H]12` [3α,21-dihydroxy-3β-fluoromethyl-5α-pregnan-20-one] showed an IC50 of 0.592 µM and an IMAX of 101. In addition, the “% Protected” value in test [1] (setting [2]) stood at 25%. Also, the “% Control” value with mice (50% hpbcd, 10 mg/kg) worked out at 109%.
On GR complex, `CC12CCC(O)(C(F)(F)F)CC1CCC1C2CCC2(C)C(C(=O)COC(=O)C=CC(=O)[O-])CCC12.[Na+]` (stereo not drawn) [3α,21-dihydroxy-3β-trifluoromethyl-5β-pregnan-20-one 21 hemifumarate sodium salt] registered a half-inhibitory concentration (IC50) of 0.546 µM and an IMAX of 102. Also, the “% Protected” value in test [1] (water) was found to be 50%. The “% Control” value in the test on mice (water, dose column prints 50% hpbcd) is 126%.
As to `CC(=O)OCC(=O)[C@H]1CC[C@H]2[C@@H]3CC[C@H]4C[C@H](O)CC[C@]4(C)[C@H]3CC[C@]12C` [3α,21-dihydroxy-5α-pregnan-20-one 21-acetate], at GR complex, the concentration for half-maximal inhibition (IC50) was found to be 0.075 µM and the IMAX is recorded as 99. Besides, the “% Protected” value in test [1] (setting [2]) is given as 50%. Moreover, in the test with mice (50% hpbcd, 10 mg/kg), the “% Control” value was 133%.
`CC1([C@H]2CC[C@H]3[C@@H]4CC[C@H]5C[C@](C)(O)CC[C@]5(C)[C@H]4CC[C@]23C)NC(C(=O)O)CS1` (stereo partly drawn) [3α-Hydroxy-3β-methyl-5α-pregnane-20-spiro-2'-(1'3'-thiazolidine-4'-carboxylic acid)]: in the test on rats (16 mg/kg), the “Geller/Seifter (% of control)” value is recorded as 900.0 % of control.
In the case of `CC=C1CCC2C3CCC4CC(O)(C(F)(F)F)CCC4C3CCC12C` (stereo not drawn) [3α-Hydroxy-3β-trifluoromethyl-5β-19-norpregn-17(20)(Z)-ene], the “% Protected” value in test [1] (setting [2]) turned out to be 25%. In addition, the “Geller/Seifter (% of control)” value in the test on rats (16 mg/kg) was 1130.3 % of control.
Regarding `CC(=O)[C@H]1CC[C@H]2[C@@H]3CC[C@@H]4C[C@@](O)(C(F)(F)F)CC[C@]4(C)[C@H]3C=C[C@]12C` [3α-Hydroxy-3β-trifluoromethyl-5β-pregn-11-en-20-one], at GR complex, the IC50 was determined as 0.203 µM and the IMAX amounted to 99. Moreover, the “Geller/Seifter (% of control)” value with rats (4 mg/kg) is 508.3 % of control.
At GR complex, `C=C(C)C#CC1(O)CCC2(C)C(CCC3C2CCC2(C)C(C(C)=O)CCC32)C1` (stereo not drawn) [3α-hydroxy-3β-(3'-methyl-but-3'-en-1'-ynyl)-5α-pregnan-20-one] displayed an IC50 of 0.088 µM and an IMAX of 95. Besides, the “% Protected” value in test [1] (setting [2]) was determined as 87.5%. In addition, the “% Control” value with mice (50% hpbcd, 10 mg/kg) was 141%.
Taken in the same sequence, the figures for `C=C(C)C#C[C@@]1(O)CC[C@@]2(C)[C@H](CC[C@@H]3[C@@H]2CC[C@]2(C)[C@@H](C(C)=O)CC[C@@H]32)C1` [3α-hydroxy-3β-(3'-methyl-but-3'-en-1'-ynyl)-5β-pregnan-20-one] were 0.024 µM, 91, 100% and 155%.
For the compound `CC(=O)[C@H]1CC[C@H]2[C@@H]3CC[C@H]4C[C@@](O)(C(F)(F)F)CC[C@@H]4[C@H]3CC[C@]12C` [3β-Trifluoromethyl-3α-hydroxy-5α-19-norpregnan-20-one], at GR complex, the IC50 stood at 0.251 µM and the IMAX was found to be 40. Moreover, in test [1] (setting [2]), the “% Protected” value is 25%. Moreover, in the test on mice (50% hpbcd, 10 mg/kg), the “% Control” value is 161%.
In the same order, the values of `C=C[C@@]1(O)CC[C@@]2(C)[C@H](CC[C@@H]3[C@@H]2CC[C@]2(C)[C@@H](C(C)=O)CC[C@@H]32)C1` [3β-ethenyl-3α-hydroxy-5β-pregnan-20-one] are 0.046 µM, 100, 87.5% and 151%.
In the same order, the values of `C#C[C@@]1(O)CC[C@H]2[C@H](CC[C@@H]3[C@@H]2CC[C@]2(C)[C@@H](C(C)=O)CC[C@@H]32)C1` [3β-ethynyl-3α-hydroxy-19-nor-5β-pregnan-20-one] are 0.044 µM, 93, 87.5% and 172%.
At GR complex, “Bis (3α,21-dihydroxy-3β-trifluoromethyl-5β-pregnan-20-one) 21-hemisuccinate” showed an IC50 of 0.189 µM and an IMAX of 23. In addition, in test [1] (setting [2]), the “% Protected” value is listed as 25%. Moreover, the “% Control” value with mice (50% hpbcd, 10 mg/kg) stood at 92%.
